Data: US5872107A, “Treatment of urogenital cancer with boron neutron capture therapy” (Emory University, priority 1997, dated 1999)

Legend:
[1] = typical nucleoside analogues; cited from earlier work
[2] = Toxicity study: weight change and survival of normal Swiss mice; format: in vivo, Swiss female mice; conditions: 30 mg/kg/day i.p.
Procedure: A toxicity study was conducted on 6-week-old Swiss female mice treated with CDU and CFAU at 30 mg/kg/day. The compounds were prepared in sterile DMSO and injected intraperitoneally (0.1 mL). DMSO and water were used as controls, with the same injection volume as that used for the CDU and CFAU solutions. The dosing schedule used was once a day for 6 days, and the mice were weighed biweekly for 28 days. Results shown in Table 3 somewhat correlate with the cytotoxicity assays in vitro.

[N-]=[N+]=N[C@H]1C[C@H](n2ccc(=O)[nH]c2=O)O[C@@H]1CO [AZddU, 3'-azido-2',3'-dideoxyuridine]
reabsorption by the renal tubule (in words) [1]: not reabsorbed appreciably by the renal tubule

5-o-carboranyl-1-(2-deoxy-2-fluoro-β-D-arabinofuranosyl)uracil [CFAU]
weight loss after 1 week (in words) ([2]; CFAU and CDU compared): comparable weight loss after 1 week
relative toxicity as monitored by survival outcome (in words) ([2]; CFAU versus CDU): more toxic than CDU
day of death of mouse ([2]; one mouse of five): 7 days
weight recovery at 4 weeks (in words) ([2]; surviving animals): all the surviving animals recovered their weight loss to control untreated levels
% of weight gained or lost on week 1 ([2]; week 1, once a day for 6 days): -6.8%
% of weight gained or lost on week 2 ([2]; week 2, once a day for 6 days): -0.4%
% of weight gained or lost on week 3 ([2]; week 3, once a day for 6 days): 5.0%
% of weight gained or lost on week 4 ([2]; week 4, once a day for 6 days): 9.6%
survival at week 4, alive/total ([2]; week 4, once a day for 6 days): 4/5
survival at week 4 (%) ([2]; week 4, once a day for 6 days, 40320 min): 80%

Cc1cn([C@H]2C[C@H](N=[N+]=[N-])[C@@H](CO)O2)c(=O)[nH]c1=O [AZT, 3'-azido-3'-deoxythymidine]
reabsorption by the renal tubule (in words) [1]: not reabsorbed appreciably by the renal tubule
